Data as given in patent US20150329512A1, “METHOD AND PHARMACEUTICAL COMPOSITION FOR TREATING LUNG CANCER” (National Dong Hua University, priority 2014, published 2015).

Experiments:
[1] = test system: A549 cells; assay: Cell cycle analysis by flow cytometer (PI staining); assay type: cell-based, human
Method: (§1) The results of Example 2 in cell viability hinted the effects of HCD, PG, and Dox on arresting cell cycle. In this example, the phase of cell cycle of A549 cells and Anti-Dox-A549 cells after the treatment listed in Table 1 was determined by flow cytometer. Briefly, 7×10^4 cells per well were to inoculated in 12-wells plate and incubated overnight at 37° C., 5% CO2. Then, cells were treated according to the treatment listed in Table 1 by indicated time period. After treatment, cells were harvested by trypsin and fixed with 70% ethanol at −20° C. for at least 3 hr. The cells were washed in cold PBS twice and then incubated with 1 ml (v/v) staining solution (20 μg/m1 propidium iodide (PI), 0.1% Triton X-100, 0.2 mg/ml Rnase) at 37° C. for 30 minutes. Lastly, cells were analyzed by flow cytometer (Cytomics™ FC500, Backman, Fullerton, Calif., USA). Data from 10,000 cells were collected for each experimental group.

[2] = test system: Anti-Dox-A549 cells; assay: as above; assay type: cell-based, human
Method: as §1

[3] = test system: A549 cells; assay: MTT assay, cell viability; assay type: cell-based, human; conditions: Homo sapiens, 24 hr treatment
Method: (§2) A549 (lung cancer cell line, non-resistance) and Anti-Dox-A549 (lung cancer cell line with resistance to Doxorubicin) were maintained in DMEM supplemented with 10% fetal bovine serum (FBS, Gibco), pH 7.4, 37° C. and with continuous circulation of 5% CO2. The medium was changed every 2 days and the cells were trypsinized with trypsin/EDTA when reaching 80%-90% confluence.
(§3) A549 and Anti-Dox-A549 were treated by the following treatment (Table 1) for 24 or 48 hr for examining the effects of HCD, PG, and Dox on their viability.
(§4) Dox1is referred as Dox of 1 μM; Dox2.5 is referred as Dox of 2.5 μM; Dox5 is referred as Dox of 5 μM; Dox10 is referred as Dox of 10 μM; Dox100 is referred as Dox of 100 μM. HCD2.5 is referred as HCD of 2.5 μM; HCD10 is referred as HCD of 10 μM; HCD25 is referred as HCD of 25 μM; HCD50 is referred as HCD of 50 μM. PG2.5 is referred as PG of 2.5 μM; PG5 is referred as PG of 5 μM; PG10 is referred as PG of 10 μM; PG20 is referred as PG of 20 μM.
(§5) In this example, the effects of HCD, PG, and Dox on the viability of A549 and anti-Dox-A549 were examined. The MTT assay was employed for this purpose. The MTT (3-(4-,5-dimethylthiazol-2-yl)-2,5-diphenyltetrazolium bromide) assay is a common colorimetric method in the field for cell viability analysis. MTT (yellow tetrazolium salt) is reduced to a purple formazan by living cells and detection to the purple formazan can be calculated as the cell viability.
(§6) Briefly, cells (A549 or Anti-Dox-A549) were seeded in 96-well plate (7×10^3 cell per well) and incubated overnight (37° C., 5% CO2).

[4] = test system: Anti-Dox-A549 cells; assay: MTT assay, cell viability; assay type: cell-based, human; conditions: Homo sapiens, 24 hr treatment
Method: as §2, §3, §4, §5, §6

[5] = test system: human lung cancer in lung of mice; assay: Mouse model bearing human lung cancer in lung (A549 or Anti-Dox-A549 cells injected); conditions: HCD 0.0318 or 1.272 mg/kg, PG 0.1615 or 0.646 mg/kg body weight, IT injection to the lung, monitored every five days for thirty days
Method: The animal experiments were approved by the National Dong-Hwa University Animal Ethics Committee and the experimental protocols were used according to the “Guide for the Care and Use of Laboratory Animals” of National Dong-Hwa University. 1×10^7 of A549 cells or Anti-Dox-A549 cells were suspended in PBS to prepare cell suspensions. On day 0, C57/BL6 mice (6-8 weeks old, n=6) were weighted and anesthetic using pentobarbital (5 mg/ml). Then, the mice were injected with the cell suspension (1×10^7 cells per mouse) into the lung by IT. The injection was repeated every 7 days for 21 days. Another group of mice were injected with 10% EtOH as comparative group according to the same procedure set forth above.
After the establishment of human lung cancer in the experimental mice, the mice were maintained for one more week and then treated with HCD (0.0318 or 1.272 mg/kg body weight, in 10% ETOH with PBS), PG (0.1615 or 0.646 mg/kg body weight, in 10% ETOH with PBS) or 10% EtOH by IT injection (intrathecal injection) to the lung. The body weight was monitored every five days for thirty days. After thirty days, the mice were sacrificed and the lungs were checked for marker of human lung adenocarcinoma by H&E and IHC staining. The livers, kidneys and spleens of the mice were also examined to confirm the cytotoxicity of HCD and PG and to see if there was any metastasis happened.

[6] = Dox 5 μM, 24 hr, Table 7 (head prints Anti-Dox-A549; b90: A549 cells)
[7] = Dox 10 μM, 24 hr, Table 7 (head prints Anti-Dox-A549; b90: A549 cells)
[8] = Dox 20 μM, 24 hr, Table 7 (head prints Anti-Dox-A549; b90: A549 cells)
[9] = Dox 5 μM, 24 hr, Anti-Dox-A549 (Table 6)
[10] = Dox 10 μM, 24 hr, Anti-Dox-A549 (Table 6)
[11] = Dox 20 μM, 24 hr, Anti-Dox-A549 (Table 6)
[12] = PG 2.5 μM, 12 hr, Anti-Dox-A549
[13] = PG 2.5 μM, 24 hr, Anti-Dox-A549

COc1cccc2c1C(=O)c1c(O)c3c(c(O)c1C2=O)C[C@@](O)(C(=O)CO)C[C@@H]3O[C@H]1C[C@H](N)[C@H](O)[C@H](C)O1 [Dox, Doxorubicin]
cell cycle effect ([1]; A549 cells, Dox 5, 10, or 20 μM (Table 7)): increased at Sub G1 phase and showed cell arrest at sub G1 phase | G0/G1 (%) [1, 6]: 50.3 ± 0.9 % | G2/M (%) [1, 6]: 15.2 ± 1.6 % | S (%) [1, 6]: 23.5 ± 0.7 % | Sub G1 (%) [1, 6]: 5.8 ± 0.5 % | G0/G1 (%) [1, 7]: 50.2 ± 1.4 % | G2/M (%) [1, 7]: 17 ± 0.3 % | S (%) [1, 7]: 20.3 ± 0.9 % | Sub G1 (%) [1, 7]: 7.4 ± 2.3 % | G0/G1 (%) [1, 8]: 37.3 ± 2.1 % | G2/M (%) [1, 8]: 21.5 ± 1.6% | S (%) [1, 8]: 23.5 ± 0.7 % | Sub G1 (%) [1, 8]: 9.0 ± 0.8 % | cell cycle effect ([2]; Anti-Dox-A549 cells, Dox 5, 10, or 20 μM (Table 6)): increased at Sub G1 phase and showed cell arrest at S phase | G0/G1 (%) [2, 9]: 54.7 ± 1.3 % | G2/M (%) [2, 9]: 9.9 ± 0.7 % | S (%) [2, 9]: 24.1 ± 0.5 % | Sub G1 (%) [2, 9]: 6.4 ± 0.6 % | G0/G1 (%) [2, 10]: 62.8 ± 0.6% | G2/M (%) [2, 10]: 9.4 ± 0.9 % | S (%) [2, 10]: 19.9 ± 0.1 % | Sub G1 (%) [2, 10]: 4.6 ± 0.3 % | G0/G1 (%) [2, 11]: 58.1 ± 3.4% | G2/M (%) [2, 11]: 12.4 ± 1.5% | S (%) [2, 11]: 18.7 ± 0.4 % | Sub G1 (%) [2, 11]: 6.2 ± 0.6 % | IC50 [3]: 5 to 10 µM | IC50 [4]: ~100 µM

CCCCCC1=C/C(=C/c2[nH]c(-c3ccc[nH]3)cc2OC)N=C1C [PG, Prodigiosin]
body weight of the experimental mice [5]: did not show significantly change | G0/G1 (%) ([1]; PG 2.5 μM, 6 hr, A549): 46.3 ± 3.4 % | G2/M (%) ([1]; PG 2.5 μM, 6 hr, A549): 32.3 ± 3.1 % | S (%) ([1]; PG 2.5 μM, 6 hr, A549): 17.3 ± 1.2 % | Sub G1 (%) ([1]; PG 2.5 μM, 6 hr, A549): 0.3 ± 0.1% | G0/G1 (%) ([1]; PG 2.5 μM, 12 hr, A549): 62.7 ± 2.7% | G2/M (%) ([1]; PG 2.5 μM, 12 hr, A549): 27.6 ± 0.7 % | S (%) ([1]; PG 2.5 μM, 12 hr, A549): 6.6 ± 2.1 % | Sub G1 (%) ([1]; PG 2.5 μM, 12 hr, A549): 0.4 ± 0.2% | G0/G1 (%) ([1]; PG 2.5 μM, 24 hr, A549): 85 ± 0.6^ % | G2/M (%) ([1]; PG 2.5 μM, 24 hr, A549): 11.6 ± 0.7% | S (%) ([1]; PG 2.5 μM, 24 hr, A549): 1.9 ± 0.15 % | Sub G1 (%) ([1]; PG 2.5 μM, 24 hr, A549): 0.26 ± 0.05% | G0/G1 (%) ([1]; PG 5 μM, 6 hr, A549): 42.9 ± 2.1 % | G2/M (%) ([1]; PG 5 μM, 6 hr, A549): 34.8 ± 0.9 % | S (%) ([1]; PG 5 μM, 6 hr, A549): 18.2 ± 0.8 % | Sub G1 (%) ([1]; PG 5 μM, 6 hr, A549): 0.26 ± 0.05% | G0/G1 (%) ([1]; PG 5 μM, 12 hr, A549): 53.3 ± 1.2 % | G2/M (%) ([1]; PG 5 μM, 12 hr, A549): 33.1 ± 0.2 % | S (%) ([1]; PG 5 μM, 12 hr, A549): 10.0 ± 2.0 % | Sub G1 (%) ([1]; PG 5 μM, 12 hr, A549): 0.36 ± 0.2% | G0/G1 (%) ([1]; PG 5 μM, 24 hr, A549): 76.2 ± 8.1 % | G2/M (%) ([1]; PG 5 μM, 24 hr, A549): 22.2 ± 1.1% | S (%) ([1]; PG 5 μM, 24 hr, A549): 3.0 ± 0.75 % | Sub G1 (%) ([1]; PG 5 μM, 24 hr, A549): 0.23 ± 0.05% | G0/G1 (%) ([1]; PG 10 μM, 6 hr, A549): 43.8 ± 3.1 % | G2/M (%) ([1]; PG 10 μM, 6 hr, A549): 27 ± 2.9% | S (%) ([1]; PG 10 μM, 6 hr, A549): 18.8 ± 0.5 % | Sub G1 (%) ([1]; PG 10 μM, 6 hr, A549): 0.33 ± 0.05% | G0/G1 (%) ([1]; PG 10 μM, 12 hr, A549): 41.6 ± 1.3 % | G2/M (%) ([1]; PG 10 μM, 12 hr, A549): 29.1 ± 3.0 % | S (%) ([1]; PG 10 μM, 12 hr, A549): 16.6 ± 1.4% | Sub G1 (%) ([1]; PG 10 μM, 12 hr, A549): 0.46 ± 0.1% | G0/G1 (%) ([1]; PG 10 μM, 24 hr, A549): 43.8 ± 2.4 % | G2/M (%) ([1]; PG 10 μM, 24 hr, A549): 26.5 ± 10.0% | S (%) ([1]; PG 10 μM, 24 hr, A549): 9.1 ± 1.7 % | Sub G1 (%) ([1]; PG 10 μM, 24 hr, A549): 0.9 ± 0.7% | G0/G1 (%) ([2]; PG 2.5 μM, 6 hr, Anti-Dox-A549): 58.9 ± 7.1% | G2/M (%) ([2]; PG 2.5 μM, 6 hr, Anti-Dox-A549): 23.5 ± 1.9% | S (%) ([2]; PG 2.5 μM, 6 hr, Anti-Dox-A549): 18.5 ± 0.5% | Sub G1 (%) ([2]; PG 2.5 μM, 6 hr, Anti-Dox-A549): 2.2 ± 0.1 % | G0/G1 (%) [2, 12]: 65.3 ± 2.9% | G2/M (%) [2, 12]: 17.2 ± 6.5% | S (%) [2, 12]: 13.8 ± 4.7% | Sub G1 (%) [2, 12]: 1.6 ± 1.2% | G0/G1 (%) [2, 13]: 81.8 ± 5.7% | G2/M (%) [2, 13]: 8.8 ± 1.4% | S (%) [2, 13]: 3.1 ± 1.3 % | Sub G1 (%) [2, 13]: 0.9 ± 0.3% | G0/G1 (%) ([2]; PG 5 μM, 6 hr, Anti-Dox-A549): 56 ± 1.3% | G2/M (%) ([2]; PG 5 μM, 6 hr, Anti-Dox-A549): 23.6 ± 2.3% | S (%) ([2]; PG 5 μM, 6 hr, Anti-Dox-A549): 18.7 ± 0.8% | Sub G1 (%) ([2]; PG 5 μM, 6 hr, Anti-Dox-A549): 1.9 ± 0.3% | G0/G1 (%) ([2]; PG 5 μM, 12 hr, Anti-Dox-A549): 62.7 ± 4.7 % | G2/M (%) ([2]; PG 5 μM, 12 hr, Anti-Dox-A549): 19.2 ± 6.9% | S (%) ([2]; PG 5 μM, 12 hr, Anti-Dox-A549): 16.8 ± 5.5% | Sub G1 (%) ([2]; PG 5 μM, 12 hr, Anti-Dox-A549): 2.9 ± 1.0% | G0/G1 (%) ([2]; PG 5 μM, 24 hr, Anti-Dox-A549): 76.2 ± 6.0% | G2/M (%) ([2]; PG 5 μM, 24 hr, Anti-Dox-A549): 13.8 ± 1.7% | S (%) ([2]; PG 5 μM, 24 hr, Anti-Dox-A549): 3.7 ± 2.0 % | Sub G1 (%) ([2]; PG 5 μM, 24 hr, Anti-Dox-A549): 4.3 ± 5.3% | G0/G1 (%) ([2]; PG 10 μM, 6 hr, Anti-Dox-A549): 54.6 ± 3.0 % | G2/M (%) ([2]; PG 10 μM, 6 hr, Anti-Dox-A549): 19.8 ± 6.6% | S (%) ([2]; PG 10 μM, 6 hr, Anti-Dox-A549): 22.9 ± 3.4 % | Sub G1 (%) ([2]; PG 10 μM, 6 hr, Anti-Dox-A549): 2 ± 0.6% | G0/G1 (%) ([2]; PG 10 μM, 12 hr, Anti-Dox-A549): 53.2 ± 2.5 % | G2/M (%) ([2]; PG 10 μM, 12 hr, Anti-Dox-A549): 22.8 ± 6.4% | S (%) ([2]; PG 10 μM, 12 hr, Anti-Dox-A549): 21.4 ± 3.7% | Sub G1 (%) ([2]; PG 10 μM, 12 hr, Anti-Dox-A549): 1.8 ± 0.2% | G0/G1 (%) ([2]; PG 10 μM, 24 hr, Anti-Dox-A549): 44.3 ± 7.7 % | G2/M (%) ([2]; PG 10 μM, 24 hr, Anti-Dox-A549): 27.9 ± 1.9 % | S (%) ([2]; PG 10 μM, 24 hr, Anti-Dox-A549): 11.7 ± 3.7% | Sub G1 (%) ([2]; PG 10 μM, 24 hr, Anti-Dox-A549): 6.9 ± 4.3%
